Holding throughout (type): in vivo
Assay [1] concerns Zea mays L. var. saccharata Sturt. Briefly: Cultivation of Zea mays L. var. saccharata Sturt with GSSG, sensory test (Example 4). Conditions: 200 mL of 0.5 mM at root twice a week for 12 weeks. An excerpt: In the present example, Zea mays L. var. saccharata Sturt was cultivated under a condition different from Example 3 in how to apply GSSG. First, a Zea mays L. var. saccharata Sturt seed (TAKII & CO. Ltd., product number: Canberra 90) was sown in vermiculite (ASAHI INDUSTRIES Co., LTD.). One week after sowing, a Zea mays L. var. saccharata Sturt plant was transplanted to a hydroponic culture pot described in Example 1. To the plant, 3 g of Kumiai phosphorate ammonium nitrate potassium S-604 (Chisso Asahi Fertilizer Co., Ltd.) was applied as an additional fertilizer 4 weeks and 6 weeks after the sowing.
During 12 weeks after germination, 200 mL of 0.5 mM GSSG was applied at a root of the plant twice a week. For comparison, a Zea mays L. var. saccharata Sturt plant was cultivated by the same method as in the present example, except that GSSG was not applied, and fruit thereof was harvested.
Fruit was harvested 12 weeks after the sowing and subjected to a sensory test of sugar content. As a result, it was determined that fruit of the plant applied with GSSG increased in sugar content compared to that of the plant applied with no GSSG. Further, it was determined that the plant applied with GSSG increased in size and number of fruit.

For another assay, the system named is Citrus unshiu. The experiment in a line: Citrus unshiu leaf coating with GSSG, sensory test of fruit (Example 9). To be noted: leaf surface coated with 0.5 mM one week before harvest. As for the experimental part: In the present example, Citrus unshiu was cultivated. Specifically, one week before an expected date of harvesting Citrus unshiu fruit, a surface of a leaf on a branch having the fruit to be harvested was coated with 0.5 mM GSSG. The fruit was harvested on the expected date.
Next, the fruit harvested was subjected to a sensory test of sugar content. As a result, it was determined that the fruit applied with GSSG increased in sugar content and decreased in acidity. Further, it was determined that the fruit applied with GSSG increased in weight. Furthermore, the fruit obtained was subjected to sugar content determination using “Pocket” Refractometer APAL-1 (ATAGO CO., LTD.). For comparison, fruit applied with no GSSG was also subjected to the sugar content determination. […] In FIG. 6, the vertical scale indicates sugar content (Brix, unit: %).

Assay [2] deals with Zea mays L. var. saccharata Sturt. The experiment in a line: Cultivation of Zea mays L. var. saccharata Sturt with GSSG, sensory test (Example 3). Conditions: 50 mL of 0.2 mM, 4 times at root and 4 times sprayed to leaves. An excerpt:
In the present example, Zea mays L. var. saccharata Sturt was cultivated. First, a Zea mays L. var. saccharata Sturt seed (TAKII & CO. Ltd., product number: Canberra 90) was sown in vermiculite (ASAHI INDUSTRIES Co., LTD.). Two weeks after sowing, a Zea mays L. var. saccharata Sturt plant was transplanted to a hydroponic culture pot described in Example 1. To the plant, 3 g of Kumiai phosphorate ammonium nitrate potassium S-604 (Chisso Asahi Fertilizer Co., Ltd.) was applied as an additional fertilizer 4 weeks and 6 weeks after the sowing.
Within 2 weeks from the 5th week after the sowing, 50 mL of 0.2 mM GSSG was applied 4 times at a root of the plant. Within 2 weeks from the 7th week after the sowing, 50 mL of 0.2 mM GSSG was sprayed 4 times to leaves of the plant. For comparison, a Zea mays L. var. saccharata Sturt plant was cultivated by the same method as in the present example, except that GSSG was not applied, and fruit thereof was harvested.
Fruit was harvested 90 days after the sowing and subjected to a sensory test of sugar content. As a result, it was determined that fruit of the plant applied with GSSG increased in sugar content compared to that of the plant applied with no GSSG. Further, it was determined that the plant applied with GSSG increased in size and number of fruit.

For assay [3], the system named is Prunus avium (Napoleon). Briefly: Sugar content determination of Prunus avium fruit with refractometer (Example 8). Conditions: leaf surface coated with 0.5 mM 4 and 3 weeks before harvest; vs no GSSG; ANOVA 5%. As for the experimental part: (§1) In the present example, Prunus avium was cultivated. Specifically, 4 weeks and 3 weeks before an expected date of harvesting Prunus avium (Napoleon) fruit, a surface of a leaf on a branch having the fruit to be harvested was coated with 0.5 mM GSSG. The fruit was harvested on the expected date.
(§2) Next, the fruit harvested was subjected to a sensory test of sugar content. As a result, it was determined that the fruit applied with GSSG increased in sugar content and decreased in acidity. Further, it was determined that the fruit applied with GSSG increased in weight. Furthermore, the fruit obtained was subjected to sugar content determination using “Pocket” Refractometer APAL-1 (ATAGO CO., LTD.). For comparison, fruit applied with no GSSG was also subjected to the sugar content determination. […] In FIG. 5, the vertical scale indicates sugar content (Brix, unit: %).

Assay [4] has as its system Prunus avium (Napoleon). Briefly: Prunus avium leaf coating with GSSG, sensory test of fruit (Example 8). Conditions: leaf surface coated with 0.5 mM 4 weeks and 3 weeks before harvest. How it is done:
as §1, §2

The next assay relates to Fragaria ananassa. Briefly: Cultivation of Fragaria ananassa with GSSG or GSH, sensory tests of fruit (Example 10). To be noted: 63 days. How it is done:
In the present example, Fragaria ananassa was cultivated with use of GSSG or GSH. Details of cultivation are described below.
First, Fragaria ananassa seedlings were transplanted to a planter. In the planter, 6 L of vermiculite (ASAHI INDUSTRIES Co., LTD.), 3 L of KUREHA horticultural soil (KUREHA CORPORATION), and 3 L of vermiculite were layered as a lower, middle, and upper layers, respectively.
During cultivation of Fragaria ananassa plants, 50 mL of 0.2 mM or 0.5 mM GSSG or 50 mL of 0.4 mM or 0.5 mM GSH (adjusted with 0.1N NaOH to be at pH7) was applied once a week at a root per plant. The plants were grown for 63 days without being subjected to bud removal. For comparison, a Fragaria ananassa plant was grown under the same condition, except that GSSG and GSH were not applied. To the plants of any condition, 3 g of Kumiai phosphorate ammonium nitrate potassium S-604 (Chisso Asahi Fertilizer Co., Ltd.) was applied as an additional fertilizer once in 2 weeks.
Next, the fruit harvested was subjected to sensory tests of sugar content and the like. As a result, it was determined that fruit of the plant applied with GSSG increased in sugar content and decreased in acidity compared to that of the plant not applied with GSSG or GSH. Further, it was determined that the plant applied with GSSG increased in number of fruit. It was also determined that fruit of the plant applied with GSH increased in sugar content and acidity.

In the case of oxidized glutathione [GSSG], the number of fruit entry (in assay [1]; in assay [2]; with Fragaria ananassa (50 mL of 0.2 or 0.5 mM GSSG once a week at root)) was “increased” throughout. Also, the size of fruit result in assay [1] and in assay [2] was “increased” in each case. The “sugar content of fruit (sensory test)” value in assay [1] (vs no GSSG) is “increased”; in the assay with Citrus unshiu it was “increased”; in assay [2] (harvest 90 days after sowing, vs no GSSG) it was “increased”; in the assay on Prunus avium (Napoleon) [4] it was “increased”; in the assay on Fragaria ananassa (50 mL of 0.2 or 0.5 mM GSSG, or 0.4 or 0.5 mM GSH, once a week at root, vs plant not applied), “increased”. In addition, the “acidity of fruit (sensory test)” value in the assay on Citrus unshiu is recorded as “decreased”; in the assay on Prunus avium (Napoleon) [4], “decreased”; in the assay on Fragaria ananassa (50 mL of 0.2 or 0.5 mM GSSG, or 0.4 or 0.5 mM GSH, once a week at root), “decreased”. Moreover, the weight of fruit result in the assay on Citrus unshiu and in the assay on Prunus avium (Napoleon) [4] was “increased” in each case. Also, in the assay on Prunus avium (Napoleon) [3], the “sugar content of fruit (Brix)” value is reported as “significantly improved”.

For the origin of these results see patent publication US8524978B2, “Composition for production of plant body having improved sugar content, and use thereof” (Japan Science and Technology Agency, priority 2007, dated 2013).
